The source of these data is PMC9780942, “Antimicrobial Activity and Immunomodulatory Properties of Acidocin A, the Pediocin-like Bacteriocin with the Non-Canonical Structure” (Membranes, 2022).

One assay deals with L. monocytogenes EGD. Type of assay: cell-based, Listeria monocytogenes. To be noted: 24 h. The protocol: (§1) Antibacterial activity of recombinant bacteriocins against a number of Gram-positive and Gram-negative bacteria (Table S2) was determined by the method of two-fold serial dilutions in a liquid medium. Two-fold serial dilutions of bacteriocins were prepared in sterile 96-well flat-bottom polystyrene microplates (Eppendorf, Hamburg, Germany) (Cat. No. 0030730.011) in a volume of 50 µL of sterile 0.1% bovine serum albumin (BSA) (SERVA Electrophoresis GmbH, Heidelberg, Germany) to prevent non-specific sorption of peptides to the surface of the plate wells [23]. Mid-log phase bacterial cultures were diluted with the 2x Mueller-Hinton broth (MHB) (Sigma-Aldrich, St. Louis, MO, USA) to a final cell concentration of 10^6 colony forming units (CFU) per mL. To determine the activity of bacteriocins against Listeria and Enterococci, 3% tryptic soy broth (TSB) (Merck-Millipore, Burlington, MA, USA) was used instead of MHB. Aliquots of 50 μL of diluted bacterial suspensions were added to each well of the plate, which was then incubated at 37 °C and 950 rpm for 24 h using thermostatable plate shaker PST-60HL-4 (Biosan, Riga, Latvia). As a negative control, 50 µL of the sterile growth medium (2xMHB or 6% TSB) was added to the wells containing 50 µL of 0.1% BSA. The values of the minimum inhibitory concentrations (MIC) were determined as the minimum concentration of the peptide, at which there was no visible growth of bacterial culture. Incubation for 2 h with 20 µg/mL chromogenic substrate resazurin (Sigma-Aldrich, St. Louis, MO, USA) was used to detect viable bacterial cells if they were difficult to visually detect. To study the effect of inorganic salts on the antimicrobial activity of bacteriocins, antibacterial activity assay was carried out in MHB medium supplemented with 0.9% NaCl.

For the next assay, the system named is L. lactis MK43. The assay can be described thus: Antibacterial activity assay (MIC), two-fold serial dilutions in liquid medium. Type of assay: cell-based. Conditions: for Minimum inhibitory concentration in the presence of NaCl: MHB supplemented with 0.9% NaCl; for Minimum Inhibitory Concentration: MHB, 0.1% BSA, 37 °C, 24 h, no visible growth. The protocol:
as §1

In another assay the test system is A. baumannii XDR CI 2675. Type of assay: cell-based. To be noted: XDR CI 2675, 24 h. The protocol: as §1
Another assay has as its system B. licheniformis B-511. It counts as cell-based. To be noted: 24 h. As for the experimental part:
as §1

Another assay deals with B. subtilis B-886. Type of assay: cell-based. Conditions: B-886, 24 h. As for the experimental part: as §1
The next assay concerns E. coli ATCC 25922. Type of assay: cell-based. To be noted: ATCC 25922, 24 h. As for the experimental part:
as §1

The test system of the next assay is E. coli ML-35p. It counts as cell-based. Conditions: 24 h. The protocol: as §1
The next assay deals with E. coli SQ110. Type of assay: cell-based. To be noted: SQ110, 24 h. The protocol:
as §1

Another assay relates to E. coli XDR CI 1057. Type of assay: cell-based. To be noted: XDR CI 1057, 24 h. As for the experimental part:
as §1

The next assay has as its system L. lactis MK66. It counts as cell-based. Conditions: MK66, 24 h. As for the experimental part:
as §1

Another assay concerns M. luteus Ac-2229. Type of assay: cell-based. To be noted: Ac-2229, 24 h. The protocol:
as §1

A further assay concerns M. phlei Ac-1221. It counts as cell-based. Conditions: 24 h. As for the experimental part:
as §1

Assay [1] concerns P. aeruginosa MDR CI 1995. Type of assay: cell-based. To be noted: MDR CI 1995, 24 h. As for the experimental part: as §1
For the next assay, the system named is S. aureus 209P. Type of assay: cell-based. To be noted: 24 h. As for the experimental part: as §1

Positions of bridges follow the written chain, without caps; N, C: chain ends. No end group written: not given here.

In the case of “KTYVGNTGYHCTKKSLWGKVRLKNVIPGTLCRKQSLPIKQDLKILLGWATGAFGKTFH (disulfide 11-31) [AcdA(x4)]”, the “Minimum Inhibitory Concentration” value was more than 32 µM in the assay with L. monocytogenes EGD; 4 µM with L. lactis MK43; 4 µM in the assay on A. baumannii XDR CI 2675; 4 µM with B. licheniformis B-511; 8 µM in the assay on B. subtilis B-886; 16 µM in the assay on E. coli ATCC 25922. For the same sequence, the “Minimum Inhibitory Concentration” value in the assay on E. coli ML-35p worked out at 8 µM; in the assay with E. coli SQ110, 8 µM; in the assay with E. coli XDR CI 1057, 8 µM; in the assay with L. lactis MK66 it was 2 µM; in the assay on M. luteus Ac-2229, 8 µM; in the assay with M. phlei Ac-1221, 4 µM. Moreover, the “Minimum Inhibitory Concentration” value (in assay [1]; with S. aureus 209P) was 16 µM each time. In addition, the “Minimum inhibitory concentration in the presence of NaCl” value is more than 32 µM with L. lactis MK43; more than 32 µM in the assay on B. licheniformis B-511; more than 32 µM with B. subtilis B-886; 16 µM in the assay with E. coli ML-35p; 32 µM with E. coli SQ110; more than 32 µM in the assay on L. lactis MK66.
In the case of “KTYYGNGVHCTKKSLWGKVRLKNVIPGTLCRKQSLPIKQDLKILLGWATGAFGKTFH (disulfide 10-30) [AcdA(dT)]”, the “Minimum Inhibitory Concentration” value is on record as more than 128 µM in the assay on L. monocytogenes EGD; 1 µM in the assay with L. lactis MK43; 4 µM in the assay on A. baumannii XDR CI 2675; 2 µM in the assay on B. licheniformis B-511; 2 µM in the assay with B. subtilis B-886; 4 µM in the assay with E. coli ATCC 25922. Further, the “Minimum Inhibitory Concentration” value with E. coli ML-35p amounted to 2 µM; in the assay with E. coli SQ110, 1 µM; in the assay on E. coli XDR CI 1057, 8 µM; with L. lactis MK66 it was 0.5 µM; with M. luteus Ac-2229, 8 µM; in the assay with M. phlei Ac-1221, 2 µM. Besides, the “Minimum Inhibitory Concentration” value in assay [1] stood at 16 µM; in the assay with S. aureus 209P, 8 µM. Further, the “Minimum inhibitory concentration in the presence of NaCl” value in the assay on L. lactis MK43 was more than 32 µM; in the assay on B. licheniformis B-511 it was more than 32 µM; with B. subtilis B-886, more than 32 µM; in the assay with E. coli ML-35p it was 16 µM; in the assay on E. coli SQ110, 8 µM; in the assay on L. lactis MK66, 32 µM.
On to “KTYYGNGVHSTKKSLWGKVRLKNVIPGTLSRKQSLPIKQDLKILLGWATGAFGKTFH [AcdA(dT,C11S,C31S)]”, for which the “Minimum Inhibitory Concentration” value in the assay on L. monocytogenes EGD is listed as more than 32 µM; in the assay on L. lactis MK43, 4 µM; in the assay on A. baumannii XDR CI 2675, more than 32 µM; with B. licheniformis B-511, 4 µM; in the assay on B. subtilis B-886, 4 µM; with E. coli ATCC 25922 it was more than 64 µM. Also, the “Minimum Inhibitory Concentration” value with E. coli ML-35p is more than 64 µM; with E. coli SQ110, 16 µM; in the assay with E. coli XDR CI 1057, more than 64 µM; in the assay with L. lactis MK66 it was 1 µM; in the assay on M. luteus Ac-2229, 32 µM; with M. phlei Ac-1221, 8 µM. Moreover, the “Minimum Inhibitory Concentration” value (in assay [1]; in the assay on S. aureus 209P) was more than 32 µM each time. Also, the “Minimum inhibitory concentration in the presence of NaCl” value with L. lactis MK43, with B. licheniformis B-511, in the assay on B. subtilis B-886, in the assay on E. coli SQ110 and in the assay on L. lactis MK66 was more than 32 µM in each case.
“HCTKKSLWGKVRLKNVIPGTLCRKQSLPIKQDLKILLGWATGAFGKTFH (disulfide 2-22) [AcdA(d9)]”: the “Minimum Inhibitory Concentration” value is listed as more than 32 µM with L. monocytogenes EGD; 8 µM in the assay with L. lactis MK43; 4 µM in the assay on A. baumannii XDR CI 2675; 8 µM in the assay on B. licheniformis B-511; 8 µM in the assay on B. subtilis B-886; 16 µM in the assay with E. coli ATCC 25922. In addition, the “Minimum Inhibitory Concentration” value with E. coli ML-35p is 4 µM; in the assay on E. coli SQ110, 8 µM; in the assay on E. coli XDR CI 1057, 8 µM; in the assay on L. lactis MK66, 2 µM; with M. luteus Ac-2229, 16 µM; with M. phlei Ac-1221 it was 4 µM. The “Minimum Inhibitory Concentration” value (in [1]; in the assay with S. aureus 209P) was 16 µM each time. In addition, the “Minimum inhibitory concentration in the presence of NaCl” value in the assay with L. lactis MK43 is given as more than 32 µM; in the assay with B. licheniformis B-511, more than 32 µM; in the assay on B. subtilis B-886, more than 32 µM; with E. coli ML-35p, 16 µM; in the assay on E. coli SQ110, 32 µM; in the assay with L. lactis MK66 it was more than 32 µM.
For the sequence “KTYYGTNAVHCTKKSLWGKVRLKNVIPGTLCRKQSLPIKQDLKILLGWATGAFGKTFH (disulfide 11-31) [AcdA(G8A)]”, the “Minimum Inhibitory Concentration” value in the assay on L. monocytogenes EGD is recorded as more than 32 µM; in the assay with L. lactis MK43, 4 µM; with A. baumannii XDR CI 2675 it was 8 µM; in the assay with B. licheniformis B-511 it was 8 µM; in the assay with B. subtilis B-886, 8 µM; with E. coli ATCC 25922, 16 µM. Moreover, the “Minimum Inhibitory Concentration” value was determined as 8 µM in the assay on E. coli ML-35p; 4 µM in the assay on E. coli SQ110; 8 µM with E. coli XDR CI 1057; 2 µM in the assay on L. lactis MK66; 16 µM in the assay on M. luteus Ac-2229; 2 µM with M. phlei Ac-1221. Besides, the “Minimum Inhibitory Concentration” value in assay [1] was found to be 16 µM; in the assay with S. aureus 209P, 8 µM. Moreover, the “Minimum inhibitory concentration in the presence of NaCl” value in the assay on L. lactis MK43 is reported as more than 32 µM; in the assay on B. licheniformis B-511 it was more than 32 µM; in the assay on B. subtilis B-886, more than 32 µM; in the assay on E. coli ML-35p, 16 µM; in the assay on E. coli SQ110, 32 µM; with L. lactis MK66, more than 32 µM.
Turning to “KTYYGNGVHCTKKSLWGKVRLKNVIPGTLCRKQSLPIKQDLKILLGWATGAFGKTFH (cysteines drawn unpaired) [AcdA(dT) (DTT reduced)]”, the “Minimum Inhibitory Concentration” value is recorded as more than 32 µM in the assay on L. monocytogenes EGD; 2 µM in the assay on L. lactis MK43; 8 µM with A. baumannii XDR CI 2675; 4 µM with B. licheniformis B-511; 4 µM in the assay on B. subtilis B-886; 8 µM in the assay on E. coli ATCC 25922. In addition, the “Minimum Inhibitory Concentration” value was found to be 4 µM with E. coli ML-35p; 4 µM in the assay on E. coli SQ110; 16 µM in the assay on E. coli XDR CI 1057; 1 µM in the assay on L. lactis MK66; 16 µM in the assay with M. luteus Ac-2229; 4 µM with M. phlei Ac-1221. Further, the entries for the “Minimum Inhibitory Concentration” value (in assay [1]; with S. aureus 209P) were more than 32 µM and 16 µM, respectively.
